Test results: ChEMBL document CHEMBL1201862, “PubChem BioAssay data set” (2004)
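Results reflect a 48-hour exposure of cells in 96-well plates to compound at five concentrations. GI50 marks 50% less growth.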 Calls of active or inactive are those of the source. Rule as the data show it: active = GI50 up to about 1.1 µM and inactive = higher.

What was measured:
Assay in all cases: NCI anticancer screen, dose series, 48 h
A498 = tested on: A498
UO-31 = tested on: UO-31
SNB-19 = tested on: SNB-19
HCT-116 = tested on: HCT-116
SK-OV-3 = tested on: SK-OV-3
MDA-N = tested on: MDA-N
CAKI-1 = tested on: CAKI-1
T47D = tested on: T47D
Malme-3M = tested on: Malme-3M
HCT-15 = tested on: HCT-15
SNB-75 = tested on: SNB-75
SW-620 = tested on: SW-620
SF-539 = tested on: SF-539
NCI/ADR-RES = tested on: NCI/ADR-RES
IGROV-1 = tested on: IGROV-1
Hs-578T = tested on: Hs-578T
SR = tested on: SR
MDA-MB-435 = tested on: MDA-MB-435
KM12 = tested on: KM12
SK-MEL-28 = tested on: SK-MEL-28

Measured: GI50

COc1cc(OCc2ccc3nc(OC)c(OC)nc3c2)cc(OC)c1OC
inactive: A498 > 10 µM | UO-31 > 10 µM | SNB-19 > 10 µM | HCT-116 > 10 µM | SK-OV-3 > 10 µM | MDA-N > 10 µM | CAKI-1 > 10 µM | T47D > 10 µM | Malme-3M > 10 µM | SNB-75 > 10 µM | SW-620 > 10 µM | SF-539 > 10 µM | NCI/ADR-RES > 10 µM | IGROV-1 > 10 µM | Hs-578T > 10 µM | SR > 10 µM | MDA-MB-435 > 10 µM | KM12 > 10 µM | SK-MEL-28 > 10 µM
> 10 µM: HCT-15

O=[N+]([O-])c1ccc(N2CCC(CCCC3CCN(c4ccc([N+](=O)[O-])cc4[N+](=O)[O-])CC3)CC2)c([N+](=O)[O-])c1
18.3 µM: HCT-15
inactive: A498 17 µM | UO-31 11.9 µM | SNB-19 16.1 µM | HCT-116 26.5 µM | SK-OV-3 18.5 µM | MDA-N 16.1 µM | CAKI-1 19 µM | T47D 5.64 µM | Malme-3M 19.1 µM | SNB-75 14.7 µM | SW-620 19.9 µM | SF-539 18.4 µM | NCI/ADR-RES 20.7 µM | IGROV-1 11.1 µM | Hs-578T 34.8 µM | SR 27 µM | MDA-MB-435 13.9 µM | KM12 16.7 µM | SK-MEL-28 12.7 µM

CC(CCCC1SCC2NC(=O)NC21)C(=O)O (stereo not given)
inactive: A498 > 100 µM | UO-31 > 100 µM | SNB-19 > 100 µM | HCT-116 > 100 µM | SK-OV-3 > 100 µM | MDA-N > 100 µM | CAKI-1 > 100 µM | T47D > 100 µM | Malme-3M > 100 µM | SNB-75 > 100 µM | SW-620 > 100 µM | SF-539 > 100 µM | NCI/ADR-RES > 100 µM | IGROV-1 > 100 µM | Hs-578T > 100 µM | SR > 100 µM | MDA-MB-435 > 100 µM | KM12 > 100 µM | SK-MEL-28 > 100 µM
> 100 µM: HCT-15

N#CC(C#N)=C1SC(=N\c2ccccc2)/C(=N/c2ccccc2)N1c1ccccc1
2.03 µM: HCT-15
inactive: A498 > 52.2 µM | UO-31 12.7 µM | SNB-19 40.2 µM | HCT-116 14.4 µM | SK-OV-3 > 100 µM | MDA-N 12.4 µM | CAKI-1 11.8 µM | T47D 5.38 µM | Malme-3M 22.2 µM | SNB-75 30 µM | SW-620 3.28 µM | SF-539 10.1 µM | NCI/ADR-RES 26.4 µM | IGROV-1 13.9 µM | Hs-578T 25.3 µM | SR 3.03 µM | MDA-MB-435 10.6 µM | KM12 > 38.5 µM | SK-MEL-28 22 µM

CCOC(=O)NC(Nc1cccc(F)c1)(C(F)(F)F)C(F)(F)F
> 100 µM: HCT-15
inactive: A498 > 100 µM | UO-31 4.94 µM | SNB-19 > 100 µM | HCT-116 > 100 µM | SK-OV-3 > 100 µM | MDA-N > 100 µM | CAKI-1 > 100 µM | T47D > 100 µM | Malme-3M > 100 µM | SNB-75 > 100 µM | SW-620 > 100 µM | SF-539 > 100 µM | NCI/ADR-RES > 100 µM | IGROV-1 > 100 µM | Hs-578T > 100 µM | SR 7 µM | MDA-MB-435 > 100 µM | KM12 > 100 µM | SK-MEL-28 > 100 µM

CCN(CC)C(=S)/N=C(\SC(=S)N(CC)CC)c1ccccc1
27.7 µM: HCT-15
inactive: A498 > 95.3 µM | UO-31 27 µM | SNB-19 > 94.8 µM | HCT-116 14.6 µM | SK-OV-3 47.3 µM | MDA-N 15.7 µM | CAKI-1 26.9 µM | T47D 25.2 µM | Malme-3M 22.4 µM | SNB-75 24.1 µM | SW-620 > 66.8 µM | SF-539 51.4 µM | NCI/ADR-RES 35.5 µM | IGROV-1 21.4 µM | Hs-578T 35.4 µM | MDA-MB-435 > 59 µM | KM12 7.96 µM | SK-MEL-28 57 µM
active: SR 0.391 µM

N#CCCN(CCC#N)c1ccc(/C=C2\SC(=S)NC2=O)cc1Br
active: Hs-578T 0.598 µM
inactive: A498 33.3 µM | UO-31 > 100 µM | SNB-19 23.8 µM | HCT-116 > 100 µM | SK-OV-3 28.6 µM | MDA-N > 100 µM | CAKI-1 > 100 µM | T47D > 100 µM | Malme-3M 16.9 µM | SNB-75 17.8 µM | SW-620 > 100 µM | SF-539 > 100 µM | NCI/ADR-RES > 100 µM | IGROV-1 72.1 µM | SR > 100 µM | MDA-MB-435 > 100 µM | KM12 66.7 µM | SK-MEL-28 > 100 µM
> 100 µM: HCT-15

COC(=O)C1([C@@H]2C[C@@H](O)[C@]3(C)CC/C=C(\C)CCC[C@H](C)[C@H](O)[C@@H]2O3)CC1
34.9 µM: HCT-15
inactive: A498 > 100 µM | UO-31 23.8 µM | SNB-19 46.7 µM | HCT-116 51.2 µM | SK-OV-3 > 100 µM | MDA-N 72.3 µM | CAKI-1 > 100 µM | T47D 46.6 µM | Malme-3M > 100 µM | SW-620 95.9 µM | SF-539 91 µM | NCI/ADR-RES 39.4 µM | IGROV-1 37.3 µM | Hs-578T 63.2 µM | SR 39.4 µM | MDA-MB-435 77.6 µM | KM12 60.4 µM | SK-MEL-28 > 100 µM
active: SNB-75 0.286 µM

O=[N+]([O-])c1ccc(N/N=C/c2ccc(OCCCCCCCCCCCO)cc2)c([N+](=O)[O-])c1
inactive: A498 36 µM | UO-31 7.35 µM | SNB-19 6.12 µM | HCT-116 17.4 µM | SK-OV-3 4.24 µM | MDA-N 3.58 µM | CAKI-1 3.34 µM | T47D 5.22 µM | Malme-3M 1.72 µM | SNB-75 1.94 µM | SW-620 4.84 µM | SF-539 1.97 µM | NCI/ADR-RES 2.73 µM | IGROV-1 6.05 µM | Hs-578T 1.32 µM | SR 2.5 µM | MDA-MB-435 2.48 µM | KM12 2.75 µM | SK-MEL-28 4 µM
9.12 µM: HCT-15

COc1cc2c(cc1C)NC(=O)/C2=C/c1c(Cl)[nH]c2ccccc12
3.38 µM: HCT-15
inactive: A498 4.57 µM | UO-31 10.3 µM | SNB-19 4.5 µM | HCT-116 4.89 µM | SK-OV-3 1.47 µM | MDA-N 1.63 µM | CAKI-1 7.71 µM | T47D 5.61 µM | Malme-3M 3.88 µM | SNB-75 7.87 µM | SW-620 4.56 µM | SF-539 1.3 µM | NCI/ADR-RES 2.62 µM | IGROV-1 3.3 µM | Hs-578T 3.26 µM | SR 3.55 µM | MDA-MB-435 1.62 µM | KM12 3.1 µM | SK-MEL-28 7 µM
